The source made the active and inactive calls.

As a reminder, the IC50 is the concentration that inhibits the measured activity by half. By inhibition is commonly meant the percentage by which the read-out fell short of the control.

Data set [1] has as its target T1, Voltage-dependent N-type calcium channel subunit alpha-1B (Homo sapiens, UniProt Q00975). The data set can be described thus: Inhibition of Cav2.2 channel (unknown origin) assessed as reduction in peak currents by whole cell patch-clamp method. In general terms: Patch clamp records ionic current or voltage across a cell membrane.
Target sequence in this assay (Q00975 whole entry): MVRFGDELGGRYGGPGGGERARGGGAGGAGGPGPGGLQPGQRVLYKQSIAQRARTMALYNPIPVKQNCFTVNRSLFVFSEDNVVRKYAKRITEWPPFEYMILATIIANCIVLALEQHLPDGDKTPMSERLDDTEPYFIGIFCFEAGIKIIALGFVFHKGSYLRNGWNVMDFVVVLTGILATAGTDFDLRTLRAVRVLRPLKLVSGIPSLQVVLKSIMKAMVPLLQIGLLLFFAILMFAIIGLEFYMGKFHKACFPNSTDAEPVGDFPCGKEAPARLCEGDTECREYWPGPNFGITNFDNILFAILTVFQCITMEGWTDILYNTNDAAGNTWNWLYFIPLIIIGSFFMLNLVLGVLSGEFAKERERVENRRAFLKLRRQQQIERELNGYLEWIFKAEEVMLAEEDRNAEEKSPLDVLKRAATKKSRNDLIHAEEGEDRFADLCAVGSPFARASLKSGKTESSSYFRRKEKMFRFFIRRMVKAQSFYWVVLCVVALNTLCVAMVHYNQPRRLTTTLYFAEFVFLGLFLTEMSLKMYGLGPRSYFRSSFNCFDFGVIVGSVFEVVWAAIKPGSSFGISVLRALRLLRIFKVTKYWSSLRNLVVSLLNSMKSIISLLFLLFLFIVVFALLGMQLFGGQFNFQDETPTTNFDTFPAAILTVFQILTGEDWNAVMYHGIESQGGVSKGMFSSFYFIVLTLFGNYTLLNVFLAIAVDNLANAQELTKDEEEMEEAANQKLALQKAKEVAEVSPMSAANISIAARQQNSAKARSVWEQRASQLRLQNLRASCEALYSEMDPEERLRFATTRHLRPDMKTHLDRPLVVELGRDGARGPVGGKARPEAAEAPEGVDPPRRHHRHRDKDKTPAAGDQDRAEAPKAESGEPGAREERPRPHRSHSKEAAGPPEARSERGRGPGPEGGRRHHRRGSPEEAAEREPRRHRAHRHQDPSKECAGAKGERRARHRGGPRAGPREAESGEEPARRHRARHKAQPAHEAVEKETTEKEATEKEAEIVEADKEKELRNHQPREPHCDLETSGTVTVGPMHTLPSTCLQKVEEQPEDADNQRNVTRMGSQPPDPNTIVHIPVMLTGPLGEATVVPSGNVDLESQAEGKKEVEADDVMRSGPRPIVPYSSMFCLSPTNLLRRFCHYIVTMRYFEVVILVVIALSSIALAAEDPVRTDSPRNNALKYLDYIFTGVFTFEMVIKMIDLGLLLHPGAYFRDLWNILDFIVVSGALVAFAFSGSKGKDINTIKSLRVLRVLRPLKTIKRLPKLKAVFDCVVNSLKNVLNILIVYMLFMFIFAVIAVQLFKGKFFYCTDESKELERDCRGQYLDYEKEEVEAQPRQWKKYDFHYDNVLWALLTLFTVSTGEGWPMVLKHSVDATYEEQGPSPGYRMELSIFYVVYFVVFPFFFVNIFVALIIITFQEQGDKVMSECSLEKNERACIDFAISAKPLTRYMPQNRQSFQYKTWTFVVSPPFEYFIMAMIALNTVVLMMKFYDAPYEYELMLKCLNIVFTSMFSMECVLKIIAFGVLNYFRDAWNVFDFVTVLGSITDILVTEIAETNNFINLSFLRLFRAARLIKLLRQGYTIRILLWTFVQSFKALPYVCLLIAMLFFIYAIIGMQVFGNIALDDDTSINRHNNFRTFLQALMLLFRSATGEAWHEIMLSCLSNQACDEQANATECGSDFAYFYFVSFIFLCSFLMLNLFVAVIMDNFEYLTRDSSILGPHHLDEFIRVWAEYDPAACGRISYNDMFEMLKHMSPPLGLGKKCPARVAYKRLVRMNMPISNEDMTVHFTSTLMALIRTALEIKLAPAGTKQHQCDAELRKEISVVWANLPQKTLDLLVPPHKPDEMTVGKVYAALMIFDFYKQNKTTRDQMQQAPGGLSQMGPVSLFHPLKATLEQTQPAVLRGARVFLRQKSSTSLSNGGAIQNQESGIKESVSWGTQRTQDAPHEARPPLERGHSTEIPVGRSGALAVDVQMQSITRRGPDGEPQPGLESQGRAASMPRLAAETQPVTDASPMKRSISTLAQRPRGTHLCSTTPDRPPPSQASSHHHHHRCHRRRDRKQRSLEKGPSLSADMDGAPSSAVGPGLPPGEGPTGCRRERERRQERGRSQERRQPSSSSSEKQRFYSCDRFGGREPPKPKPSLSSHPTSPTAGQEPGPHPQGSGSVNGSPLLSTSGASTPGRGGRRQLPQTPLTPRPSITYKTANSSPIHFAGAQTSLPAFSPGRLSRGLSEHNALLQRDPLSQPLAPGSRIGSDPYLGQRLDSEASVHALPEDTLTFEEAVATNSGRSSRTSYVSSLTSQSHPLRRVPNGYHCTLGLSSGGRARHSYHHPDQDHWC
Data set [2] concerns the target T1, Voltage-dependent N-type calcium channel subunit alpha-1B. The data set can be described thus: Inhibition of Cav2.2 channel (unknown origin) assessed as reduction in peak currents at 10 uM by whole cell patch-clamp method.
Target sequence in this assay (Q00975 whole entry, looked up): as the sequence (Q00975 whole entry) above
Data set [3] has as its target T2, Voltage-dependent T-type calcium channel subunit alpha-1G (Homo sapiens, UniProt O43497). Kind of data set: Inhibition of Cav3.1 channel (unknown origin) assessed as reduction in peak currents by whole cell patch-clamp method.
The target of data set [4] is T2, Voltage-dependent T-type calcium channel subunit alpha-1G. The data set can be described thus: Inhibition of Cav3.1 channel (unknown origin) assessed as reduction in peak currents at 10 uM by whole cell patch-clamp method.
Data set [5] relates to Rattus norvegicus. The data set can be described thus: Analgesic activity in Sprague-Dawley rat model of spinal cord injury-induced neuropathic pain assessed as reduction in thermal hyperalgesia by measuring paw withdrawal latency time at 100 ug dosed intrathecally measured after 30 mins (reference value: […]). The data set is classed as functional.
Data set [6] concerns Rattus norvegicus. Kind of data set: Effect on hind limb locomotion in Sprague-Dawley rat model of spinal cord injury-induced neuropathic pain assessed as Basso-Beattie-Bresnahan scores at 10 to 100 ug dosed via intrathecal route. The settings on record: in vivo, icv_or_intrathecal. The data set is classed as ADME, organism-based, Hindlimb.
Data set [7] concerns Rattus norvegicus. The data set can be described thus: Analgesic activity in Sprague-Dawley rat model of spinal cord injury-induced neuropathic pain assessed as reduction in mechanical allodynia by measuring paw withdrawal threshold at 100 ug dosed intrathecally measured after 30 mins (reference value: 2.8 +/- 0.4 g). The data set is classed as functional.
Data set [8] concerns Rattus norvegicus. Kind of data set: Analgesic activity in Sprague-Dawley rat model of spinal cord injury-induced neuropathic pain assessed as reduction in thermal hyperalgesia by measuring paw withdrawal latency time at 50 ug dosed intrathecally measured after 30 mins (reference value: […]). The data set is classed as functional.
For data set [9], the system named is Rattus norvegicus. The data set can be described thus: Analgesic activity in Sprague-Dawley rat model of spinal cord injury-induced neuropathic pain assessed as reduction in thermal hyperalgesia by measuring paw withdrawal latency time at 10 ug dosed intrathecally measured after 30 mins (reference value: […]). Type of data set: functional.
Data set [10] has as its system Rattus norvegicus. Kind of data set: Analgesic activity in Sprague-Dawley rat model of spinal cord injury-induced neuropathic pain assessed as reduction in mechanical allodynia by measuring paw withdrawal threshold at 10 ug dosed intrathecally measured after 30 mins (reference value: 2.8 +/- 0.4 g). The data set is classed as functional.
Data set [11] deals with Rattus norvegicus. Kind of data set: Analgesic activity in Sprague-Dawley rat model of spinal cord injury-induced neuropathic pain assessed as reduction in mechanical allodynia by measuring paw withdrawal threshold at 50 ug dosed intrathecally measured after 30 mins (reference value: 2.8 +/- 0.4 g). Type of data set: functional.

T2 sequence (O43497 whole entry): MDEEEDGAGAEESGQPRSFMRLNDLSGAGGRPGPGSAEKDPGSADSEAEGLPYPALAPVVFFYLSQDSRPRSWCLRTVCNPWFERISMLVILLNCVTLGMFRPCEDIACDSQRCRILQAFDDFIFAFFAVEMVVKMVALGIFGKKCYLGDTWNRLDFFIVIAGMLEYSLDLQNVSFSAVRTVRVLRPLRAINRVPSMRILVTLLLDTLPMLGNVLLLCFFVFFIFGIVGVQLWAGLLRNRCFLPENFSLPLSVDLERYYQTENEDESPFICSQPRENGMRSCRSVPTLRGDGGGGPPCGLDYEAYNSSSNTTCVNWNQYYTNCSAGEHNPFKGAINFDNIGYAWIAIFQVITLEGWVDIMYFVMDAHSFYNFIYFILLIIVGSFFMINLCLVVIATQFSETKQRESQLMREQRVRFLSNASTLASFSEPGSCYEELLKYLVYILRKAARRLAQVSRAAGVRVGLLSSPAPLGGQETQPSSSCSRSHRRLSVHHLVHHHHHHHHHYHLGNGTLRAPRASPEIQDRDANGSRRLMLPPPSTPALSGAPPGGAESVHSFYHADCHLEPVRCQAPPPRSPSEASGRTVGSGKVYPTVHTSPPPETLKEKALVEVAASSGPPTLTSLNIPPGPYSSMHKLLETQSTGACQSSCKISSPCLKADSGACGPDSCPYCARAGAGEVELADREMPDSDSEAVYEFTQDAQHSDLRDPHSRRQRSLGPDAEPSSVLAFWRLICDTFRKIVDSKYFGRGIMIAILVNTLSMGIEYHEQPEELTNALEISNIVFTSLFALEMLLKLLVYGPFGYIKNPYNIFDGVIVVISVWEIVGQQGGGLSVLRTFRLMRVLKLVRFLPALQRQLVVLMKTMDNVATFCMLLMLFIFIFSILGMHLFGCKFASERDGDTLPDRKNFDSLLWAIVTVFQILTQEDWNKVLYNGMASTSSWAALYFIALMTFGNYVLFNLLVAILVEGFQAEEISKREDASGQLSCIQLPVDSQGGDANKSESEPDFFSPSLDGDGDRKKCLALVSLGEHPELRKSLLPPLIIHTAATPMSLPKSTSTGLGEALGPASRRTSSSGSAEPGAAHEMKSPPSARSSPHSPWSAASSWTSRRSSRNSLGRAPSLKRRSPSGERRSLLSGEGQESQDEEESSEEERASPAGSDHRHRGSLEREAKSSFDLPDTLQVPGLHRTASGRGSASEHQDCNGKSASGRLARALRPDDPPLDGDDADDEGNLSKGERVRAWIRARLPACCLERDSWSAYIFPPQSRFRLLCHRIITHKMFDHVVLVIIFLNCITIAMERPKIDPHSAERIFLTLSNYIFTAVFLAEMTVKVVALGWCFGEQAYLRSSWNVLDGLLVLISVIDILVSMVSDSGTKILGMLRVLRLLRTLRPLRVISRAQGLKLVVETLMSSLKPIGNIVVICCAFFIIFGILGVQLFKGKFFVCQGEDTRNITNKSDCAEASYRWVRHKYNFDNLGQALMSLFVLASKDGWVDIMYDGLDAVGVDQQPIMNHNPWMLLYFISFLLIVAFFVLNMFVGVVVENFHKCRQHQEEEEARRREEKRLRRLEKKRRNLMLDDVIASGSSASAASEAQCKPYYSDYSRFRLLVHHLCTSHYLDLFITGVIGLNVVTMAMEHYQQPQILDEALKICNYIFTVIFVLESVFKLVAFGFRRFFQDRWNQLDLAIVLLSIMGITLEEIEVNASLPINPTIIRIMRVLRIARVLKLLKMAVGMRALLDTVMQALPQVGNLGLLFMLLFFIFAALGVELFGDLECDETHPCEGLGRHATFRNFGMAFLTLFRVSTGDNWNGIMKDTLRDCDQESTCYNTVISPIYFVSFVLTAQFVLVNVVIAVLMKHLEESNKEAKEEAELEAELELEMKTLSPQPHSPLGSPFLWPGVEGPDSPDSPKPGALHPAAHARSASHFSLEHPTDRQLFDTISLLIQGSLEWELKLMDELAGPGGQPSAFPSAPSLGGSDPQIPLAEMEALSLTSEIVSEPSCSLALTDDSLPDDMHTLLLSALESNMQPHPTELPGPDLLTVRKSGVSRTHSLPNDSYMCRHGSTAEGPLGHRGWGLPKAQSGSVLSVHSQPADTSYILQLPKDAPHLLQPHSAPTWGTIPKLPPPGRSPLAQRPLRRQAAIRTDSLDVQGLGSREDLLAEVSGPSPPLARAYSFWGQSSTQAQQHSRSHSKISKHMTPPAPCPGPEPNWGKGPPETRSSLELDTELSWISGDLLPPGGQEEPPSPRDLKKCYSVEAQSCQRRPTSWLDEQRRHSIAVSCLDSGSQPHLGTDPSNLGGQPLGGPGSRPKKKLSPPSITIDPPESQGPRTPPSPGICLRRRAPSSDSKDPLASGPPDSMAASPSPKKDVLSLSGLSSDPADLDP

Regarding `COc1cc(CNCc2c[nH]c3ccc(Cl)cc23)cc(OC)c1OC`, the IC50 is 9.5 µM in [1] and 5.2 µM in data set [3]. For the same compound, the inhibition in data set [2] is 75.2%; in data set [4], 64.2%.

Regarding `COc1cc(CNCc2ccc(Oc3ccc(C#N)cc3)cc2)cc(OC)c1OC`, the IC50 in data set [1] was 9.4 µM; in data set [3] it was 6.4 µM. Moreover, the figures for the inhibition in data set [2] and in data set [4] were 54.9% and 60.4%, respectively.

Consider `COc1ccc(-c2ccc(CNCc3cc(OC)c(OC)c(OC)c3)o2)cc1Cl`, for which the IC50 in data set [1] was 5.9 µM; in data set [3], 2.4 µM. Also, the figures for the inhibition in data set [2] and in [4] were 70.6% and 77.6%, respectively.

Regarding `NC(=O)c1cccc(NCc2c[nH]c3ccc(Cl)cc23)c1`, the inhibition in data set [4] turned out to be 39.9%.

As for `NC(=O)c1cccc(NCc2ccc(-c3cccc(C(F)(F)F)c3)o2)c1`, the inhibition in [4] was determined as 39.3%.

As for `NC(=O)c1cccc(NCc2ccc(-c3ccc(Cl)cc3)o2)c1`, the inhibition in data set [4] worked out at 14.5%.

Regarding `NC(=O)c1cccc(NCc2ccc(N3CCOCC3)cc2)c1`, in data set [4], the inhibition came to 4.1%.

On to `COc1cc(CNCc2ccc(-c3ccc(Cl)cc3)o2)cc(OC)c1OC`, for which the Time with Rattus norvegicus [5] was 8.9 s; in the data set with Rattus norvegicus [8], 8.3 s; in the data set on Rattus norvegicus [9], 5.8 s. Besides, the IC50 in data set [1] is 4.3 µM; in data set [3] it was 1.9 µM. The Activity result in the data set with Rattus norvegicus [6] is reported as “Non-toxic”; in the data set with Rattus norvegicus [7], 11.1 g; with Rattus norvegicus [10], 2.6 g; with Rattus norvegicus [11], 9.16 g. Besides, the values for the inhibition in data set [2] and in data set [4] were 80.2% and 91.3%, respectively.

Turning to `COc1ccc(-c2ccc(CNc3cccc(C(N)=O)c3)o2)cc1Cl`, the inhibition in data set [4] is 41.6%.

Turning to `COc1cc(CNCc2ccc(-c3cccc(C(F)(F)F)c3)o2)cc(OC)c1OC`, the values for the half-inhibitory concentration (IC50) in data set [1] and in [3] were 6.7 µM and 2.5 µM, respectively. The inhibition in data set [2] was found to be 81.6%; in [4] it was 86.6%.

For the compound `COc1cc(CNCc2ccc(N3CCOCC3)cc2)cc(OC)c1OC`, the inhibition in data set [4] turned out to be 9.8%.

On to `COc1cc(CNCc2ccc(-c3cncnc3)cc2)cc(OC)c1OC`, for which the inhibition in data set [4] stood at 38.3%.

`NC(=O)c1cccc(NCc2cc(-c3ccc(Cl)cc3)on2)c1`: the inhibition in [4] amounted to 25.2%.

As for `COc1cc(CNCc2ccc(-c3ccncc3)cc2)cc(OC)c1OC`, the inhibition in [4] turned out to be 21.9%.

On to `N#Cc1ccc(Oc2ccc(-c3ccc(CNc4cccc(C(N)=O)c4)o3)cc2)cc1`, for which the outcome in the data set with Rattus norvegicus [5], in the data set with Rattus norvegicus [7], in the data set with Rattus norvegicus [8], in the data set with Rattus norvegicus [9], in the data set on Rattus norvegicus [10] and with Rattus norvegicus [11] was inactive. The inhibition in data set [2] stood at 21.6%; in data set [4] it was 53%. The IC50 in data set [3] is 7.4 µM.

(Values after ChEMBL document CHEMBL3612045, “3-Benzamides and 3,4,5-trimethoxyphenyl amines as calcium channel blockers” (Bioorg Med Chem, 2015).)
